This note sets out measurements from patent US8748436B2, “Carboxylic acid derivatives having a 2,5,7-substituted oxazolopyrimidine ring” (Sanofi, priority 2010, dated 2014).

The target in one assay is T1, human Edg-1 receptor (Homo sapiens, UniProt P21453).
T1 construct: FLAG (N); expressed in transfected cells; membrane preparation
T1 sequence (P21453 whole entry): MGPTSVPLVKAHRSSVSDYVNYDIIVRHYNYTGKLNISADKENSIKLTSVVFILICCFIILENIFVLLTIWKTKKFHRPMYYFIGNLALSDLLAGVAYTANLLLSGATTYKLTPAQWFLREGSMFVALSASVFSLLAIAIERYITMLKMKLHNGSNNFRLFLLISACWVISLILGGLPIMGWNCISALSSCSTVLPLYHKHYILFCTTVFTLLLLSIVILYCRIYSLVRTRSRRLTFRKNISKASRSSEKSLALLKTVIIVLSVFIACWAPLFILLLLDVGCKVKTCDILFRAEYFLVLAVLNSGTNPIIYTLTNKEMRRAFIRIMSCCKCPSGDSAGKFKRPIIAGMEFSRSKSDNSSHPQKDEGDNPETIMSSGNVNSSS
Kind of assay: GTP-γ-S assay using human Edg-1 receptors (scintillation proximity assay, CHO Flp-In cell membrane preparation). The assay is classed as biochemical. Conditions: test compound at 10 μM; high control 10 μM S1P regarded as 100% activation; [35S]GTP-γ-S binding, triplicate. From the text: A) GTP-γ-S Assay Using Human Edg-1 Receptors
In order to determine the Edg-1 receptor activation by the compounds of the invention, a GTP-γ-S (guanosine 5′-[thio]triphosphate) assay for G-protein coupled receptor binding based on the scintillation proximity assay principle was used, employing a cell membrane preparation from a CHO Flp-In cell line which constitutively overexpresses the human Edg-1 receptor.
The Flp-In™ expression system (Invitrogen, cat. no. K6010-01) allows the generation of stable mammalian cell lines into which the gene of interest has been integrated through homologous recombination at a specific genomic location called Flp Recombination Target (FRT) site by means of a Flp recombinase encoded by the pOG44 expression plasmid. The integration of the pcDNA5/FRT expression construct into the Flp-In host cell line genome results in the transcription of the gene of interest. The stably transfected cells become hygromycin-resistant.
One day prior to transfection, 200 000 Flp-In-CHO cells were seeded in Ham F-12 medium (Invitrogen, cat. no. 31765) supplemented with 10% fetal calf serum (FCS; Perbio Science, cat. no. SH30068.03) in a 6-well plate and incubated at 37° C./5% CO2 overnight. Using the FuGENE® 6 transfection reagent (Roche, cat. no. 11988387001), cells were cotransfected with the Flp recombinase expression plasmid pOG44 and a modified plasmid additionally containing the edg-1 gene (accession no. NM_001400) termed as pcDNA5-FRT-TO_nFLAG_DEST-EDG-1 with a 9:1 ratio. To obtain the modified pcDNA5-FRT-TO_nFLAG_DEST plasmid, the Invitrogen plasmid pcDNA5/FRT/TO (Invitrogen, cat. no. V6520-20) was adapted to the Gateway® (Invitrogen) cloning system by inserting a Gateway cassette containing attR recombination sites flanking a ccdB gene and a chloramphenicol-resistance gene (Gateway conversion system, Invitrogen, cat. no. 11828-029). In addition a FLAG tag epitope was added before the 5′ att recombination site to allow recombinant expression of N-terminally FLAG-tagged proteins.
For the transfection of one well, 1.08 μg of pOG44 and 0.12 μg of pcDNA5-FRT-TO_nFLAG_DEST-EDG-1 were mixed to 100 μl of serum-free Ham F-12 medium containing 6 μl of FuGENE® 6 transfection reagent. After 20 min of incubation, the transfection reagent/DNA complex was distributed dropwise on the cells. The cells were incubated for 24 h at 37° C. Then the cells from 3 wells were transferred to a T75 flask (Greiner Cellstar®, cat. no. 658175) containing Ham F-12 medium supplemented with 10% of FCS but without antibiotic and were incubated another 24 h. 48 h after transfection, the medium was replaced by selection medium (Ham F-12 supplemented with 10% of FCS and 300 μg/ml of hygromycin B (Invitrogen, cat. no. 10687-010)). The medium was exchanged every 2 to 3 days until a resistant population of cells had grown. […] After 2 weeks of selection, the cells were transferred into T175 flasks (Greiner Cellstar®, cat. no. 660175) and cultivated for batch production. Cells were harvested from the culture flasks by short treatment (2 to 5 min) with Accutase (PAA, cat. no. L11-007), resuspended in selection medium (see above) and centrifuged at 200×g for 5 min. The cells were resuspended in a mixture of 90% of FCS and 10% of dimethylsulfoxide and stored frozen in liquid nitrogen.
A membrane preparation was obtained by standard methods from the afore-described CHO Flp-In cell line constitutively overexpressing the human Edg-1 receptor. Briefly, the cryopreserved cells were taken in culture and grown until confluency in T175 cell culture flasks (Becton Dickinson, cat. no. 35 5001). […]
On the technique in general: Scintillation proximity formats need no separation of bound from free tracer.
With `CCCOc1nc(Oc2cccc(F)c2)nc2oc(-c3cc(C)c(OCC(=O)O)c(C)c3)nc12` [Example 34, {4-[5-(3-fiuorophenoxy)-7-propoxy-oxazolo[5,4-d]pyrimidin-2-yl]-2,6-dimethyl-phenoxy}-acetic acid], the “% Activation (Edg-1 receptor activation in percent of the activation by 10 μM S1P)” value is listed as 48%.

Still in this assay, the particulars now being: test compound at 10 μM; high control 10 μM S1P regarded as 100% activation; [35S]GTP-γ-S binding, triplicate; read-out: % Activation (Edg-1 receptor activation in percent of the activation by 10 μM S1P).
As for `CCCOc1nc(Oc2cc(F)ccc2C)nc2oc(-c3cc(C)c(OCC(=O)O)c(C)c3)nc12` [Example 5, {4-[5-(5-fluoro-2-methyl-phenoxy)-7-propoxy-oxazolo[5,4-d]pyrimidin-2-yl]-2,6-dimethyl-phenoxy}-acetic acid], the activation at 10 µM was determined as 91%.

`CCCOc1nc(Oc2ccc(F)cc2F)nc2oc(-c3cc(C)c(OCC(=O)O)c(C)c3)nc12` [Example 8, {4-[5-(2,4-difluoro-phenoxy)-7-propoxy-oxazolo[5,4-d]pyrimidin-2-yl]-2,6-dimethyl-phenoxy}-acetic acid]: the activation at 10 µM amounted to 84%.

With `CCCOc1nc(Oc2ccc(F)c(Cl)c2)nc2oc(-c3cc(C)c(OCC(=O)O)c(C)c3)nc12` [Example 62, {4-[5-(3-chloro-4-fluorophenoxy)-7-propoxy-oxazolo[5,4-d]pyrimidin-2-yl]-2,6-dimethylphenoxy}-acetic acid], the activation at 10 µM was determined as 56%.

`CCCOc1nc(Oc2cncc(C)c2)nc2oc(-c3cc(C)c(OCC(=O)O)c(C)c3)nc12` [Example 33, {2,6-dimethyl-4-[5-(5-methylpyridin-3-yloxy)-7-propoxy-oxazolo[5,4-d]pyrimidin-2-yl]-phenoxy}-acetic acid]: the activation at 10 µM came to 110%.

On to `CCCOc1nc(Oc2cccnc2)nc2oc(-c3cc(C)c(OCC(=O)O)c(C)c3)nc12` [Example 7, {2,6-dimethyl-4-[7-propoxy-5-(pyridin-3-yloxy)-oxazolo[5,4-d]pyrimidin-2-yl]-phenoxy}-acetic acid], for which the activation at 10 µM came out at 87%.

Turning to `CCCOc1nc(OC2CCCC2)nc2oc(-c3cc(C)c(OCC(=O)O)c(C)c3)nc12` [Example 2, [4-(5-Cyclopentyloxy-7-propoxy-oxazolo[5,4-d]pyrimidin-2-yl)-2,6-dimethyl-phenoxy]-acetic acid], the activation at 10 µM turned out to be 90%.

In the case of `CCCOc1nc(OCCC)c2nc(-c3cc(C)c(OCC(=O)O)c(C)c3)oc2n1` [Example 15, [4-(5,7-dipropoxy-oxazolo[5,4-d]pyrimidin-2-yl)-2,6-dimethyl-phenoxy]-acetic acid], the activation at 10 µM is 98%.

Turning to `CCCOc1nc(Oc2cc(C(F)(F)F)ccc2F)nc2oc(-c3cc(C)c(OCC(=O)O)c(C)c3)nc12` [Example 73, {4-[5-(2-fluoro-5-trifluoromethylphenoxy)-7-propoxy-oxazolo[5,4-d]pyrimidin-2-yl]-2,6-dimethylphenoxy}-acetic acid], the activation at 10 µM is 59%.

For the compound `CCCOc1nc(Oc2ccccc2C)nc2oc(-c3cc(C)c(OCC(=O)O)c(C)c3)nc12` [Example 30, [2,6-dimethyl-4-(7-propoxy-5-(2-methylphenoxy)-oxazolo[5,4-d]pyrimidin-2-yl)-phenoxy]-acetic acid], the activation at 10 µM was 97%.

Take `CCCOc1nc(OCC2CCCO2)nc2oc(-c3cc(C)c(OCC(=O)O)c(C)c3)nc12` (stereo not drawn) [Example 19, {2,6-dimethyl-4-[7-propoxy-5-(tetrahydrofuran-2-ylmethoxy)-oxazolo[5,4-d]pyrimidin-2-yl]-phenoxy}-acetic acid]: the activation at 10 µM worked out at 84%.

`CCCOc1nc(Oc2ccccc2Cl)nc2oc(-c3cc(C)c(OCC(=O)O)c(C)c3)nc12` [Example 47, {4-[5-(2-chlorophenoxy)-7-propoxy-oxazolo[5,4-d]pyrimidin-2-yl]-2,6-dimethylphenoxy}-acetic acid]: the activation at 10 µM amounted to 86%.

`CCCOc1nc(Oc2ccc(F)c(F)c2)nc2oc(-c3cc(C)c(OCC(=O)O)c(C)c3)nc12` [Example 51, {4-[5-(3,4-difluorophenoxy)-7-propoxy-oxazolo[5,4-d]pyrimidin-2-yl]-2,6-dimethylphenoxy}-acetic acid]: the activation at 10 µM was 49%.

As for `CCCOc1nc(Oc2cccc(CC)c2)nc2oc(-c3cc(C)c(OCC(=O)O)c(C)c3)nc12` [Example 40, {4-[5-(3-ethylphenoxy)-7-propoxy-oxazolo[5,4-d]pyrimidin-2-yl]-2,6-dimethyl-phenoxy}-acetic acid], the activation at 10 µM came out at 95%.

Consider `CCCOc1nc(Oc2cccc(F)c2F)nc2oc(-c3cc(C)c(OCC(=O)O)c(C)c3)nc12` [Example 49, {4-[5-(2,3-difluorophenoxy)-7-propoxy-oxazolo[5,4-d]pyrimidin-2-yl]-2,6-dimethylphenoxy}-acetic acid], for which the activation at 10 µM was determined as 103%.

`CCCOc1nc(Oc2ccc3c(c2)CCC3)nc2oc(-c3cc(C)c(OCC(=O)O)c(C)c3)nc12` [Example 53, {4-[5-(indan-5-yloxy)-7-propoxy-oxazolo[5,4-d]pyrimidin-2-yl]-2,6-dimethylphenoxy}-acetic acid]: the activation at 10 µM is 55%.

As for `CCCOc1nc(Oc2ccc(F)c(C(F)(F)F)c2)nc2oc(-c3cc(C)c(OCC(=O)O)c(C)c3)nc12` [Example 74, {4-[5-(4-fluoro-3-trifluoromethylphenoxy)-7-propoxy-oxazolo[5,4-d]pyrimidin-2-yl]-2,6-dimethyl-phenoxy}-acetic acid], the activation at 10 µM came out at 61%.

For `CCOc1nc(Oc2cc(F)ccc2F)nc2oc(-c3cc(C)c(OCC(=O)O)c(C)c3)nc12` [Example 39, {4-[5-(2,5-difluorophenoxy)-7-ethoxy-oxazolo[5,4-d]pyrimidin-2-yl]-2,6-dimethyl-phenoxy}-acetic acid], the activation at 10 µM amounted to 121%.

`CCCOc1nc(Oc2cccc(Cl)c2)nc2oc(-c3cc(C)c(OCC(=O)O)c(C)c3)nc12` [Example 10, {4-[5-(3-chloro-phenoxy)-7-propoxy-oxazolo[5,4-d]pyrimidin-2-yl]-2,6-dimethyl-phenoxy}-acetic acid]: the activation at 10 µM was determined as 86%.

Regarding `CCCOc1nc(Oc2ccc3ccccc3c2)nc2oc(-c3cc(C)c(OCC(=O)O)c(C)c3)nc12` [Example 57, {2,6-dimethyl-4-[5-(naphthalen-2-yloxy)-7-propoxy-oxazolo[5,4-d]pyrimidin-2-yl]-phenoxy}-acetic acid], the activation at 10 µM came out at 58%.

For `CCCOc1nc(Oc2cnsn2)nc2oc(-c3cc(C)c(OCC(=O)O)c(C)c3)nc12` [Example 28, {2,6-dimethyl-4-[7-propoxy-5-([1,2,5]thiadiazol-3-yloxy)-oxazolo[5,4-d]pyrimidin-2-yl]-phenoxy}-acetic acid], the activation at 10 µM turned out to be 83%.

`CCCOc1nc(Oc2cncc(F)c2)nc2oc(-c3cc(C)c(OCC(=O)O)c(C)c3)nc12` [Example 37, {4-[5-(5-fluoropyridin-3-yloxy)-7-propoxy-oxazolo[5,4-d]pyrimidin-2-yl]-2,6-dimethyl-phenoxy}-acetic acid]: the activation at 10 µM turned out to be 117%.

With `CCCOc1nc(Oc2cnc3ccccc3c2)nc2oc(-c3cc(C)c(OCC(=O)O)c(C)c3)nc12` [Example 58, {2,6-dimethyl-4-[7-propoxy-5-(quinolin-3-yloxy)-oxazolo[5,4-d]pyrimidin-2-yl]-phenoxy}-acetic acid], the activation at 10 µM turned out to be 75%.

Consider `CCCOc1nc(Oc2ccc(C)c(F)c2)nc2oc(-c3cc(C)c(OCC(=O)O)c(C)c3)nc12` [Example 6, {4-[5-(3-fluoro-4-methyl-phenoxy)-7-propoxy-oxazolo[5,4-d]pyrimidin-2-yl]-2,6-dimethyl-phenoxy}-acetic acid], for which the activation at 10 µM was 73%.
